Experimental findings from PMC9696710 (International Journal of Molecular Sciences, 2022) are described below.

Test in all cases: stopped-flow CO2 hydrase assay
Common to all, as to format: biochemical

The target in one assay is T1, hCA I (Homo sapiens, UniProt P00915).
T1 construct: gene CA1; recombinant, obtained in-house; cytosolic alpha-CA
As to conditions: read-out: KI (nM) ^a / hCA I (α-CA). The source says:
stopped-flow CO2 hydrase assay on hCA I

The target of a further assay is T2, CgNce103 (Nakaseomyces glabratus, UniProt Q6FTL6).
T2 construct: gene NCE103; recombinant, obtained in-house; beta-CA
T2 sequence (Q6FTL6 1-219): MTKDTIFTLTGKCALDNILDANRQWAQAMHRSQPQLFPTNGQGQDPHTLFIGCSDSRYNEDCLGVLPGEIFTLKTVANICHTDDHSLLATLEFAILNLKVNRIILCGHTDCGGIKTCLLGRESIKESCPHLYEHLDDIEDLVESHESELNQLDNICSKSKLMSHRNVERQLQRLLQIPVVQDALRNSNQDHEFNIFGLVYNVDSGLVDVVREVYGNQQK
As to conditions: read-out: KI (nM) ^a / CgNce103 (β-CA).

In a further assay the target is T3, MgCA (Malassezia globosa, UniProt A8Q1N3).
T3 construct: gene MGL_1814; recombinant, obtained in-house; beta-CA
T3 sequence (A8Q1N3 1-241): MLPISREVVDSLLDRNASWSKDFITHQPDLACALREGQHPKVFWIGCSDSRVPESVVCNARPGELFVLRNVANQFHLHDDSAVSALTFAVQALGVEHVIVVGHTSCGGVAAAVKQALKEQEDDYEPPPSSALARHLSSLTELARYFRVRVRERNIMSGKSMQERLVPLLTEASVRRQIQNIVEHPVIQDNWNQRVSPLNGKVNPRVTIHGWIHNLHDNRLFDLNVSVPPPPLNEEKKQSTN
As to conditions: […] TRIS pH […] Na2SO4, […] h preincubation at room temperature; read-out: KI (nM) ^a / MgCA (β-CA).

Another assay has as its target T4, hCA II (Homo sapiens, UniProt P00918).
T4 construct: gene CA2; recombinant, obtained in-house; cytosolic alpha-CA
The conditions noted are these: read-out: KI (nM) ^a / hCA II (α-CA). The text has this: stopped-flow CO2 hydrase assay on hCA II

For another assay, the target named is T5, hCA VII (Homo sapiens, UniProt P43166).
T5 construct: gene CA7; recombinant, obtained in-house; cytosolic alpha-CA
As to conditions: read-out: KI (nM) ^a / hCA VII (α-CA). The text has this: stopped-flow CO2 hydrase assay on hCA VII

Each structure is given as a SMILES string.

T1 sequence (P00915 2-261): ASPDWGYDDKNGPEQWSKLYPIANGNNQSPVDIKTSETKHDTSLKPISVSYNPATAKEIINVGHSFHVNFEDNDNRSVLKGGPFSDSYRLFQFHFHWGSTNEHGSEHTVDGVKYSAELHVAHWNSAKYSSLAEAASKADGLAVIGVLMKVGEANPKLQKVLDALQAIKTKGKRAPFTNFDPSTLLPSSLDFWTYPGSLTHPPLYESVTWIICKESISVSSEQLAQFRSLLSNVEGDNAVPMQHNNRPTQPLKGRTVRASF
T5 sequence (P43166 whole entry): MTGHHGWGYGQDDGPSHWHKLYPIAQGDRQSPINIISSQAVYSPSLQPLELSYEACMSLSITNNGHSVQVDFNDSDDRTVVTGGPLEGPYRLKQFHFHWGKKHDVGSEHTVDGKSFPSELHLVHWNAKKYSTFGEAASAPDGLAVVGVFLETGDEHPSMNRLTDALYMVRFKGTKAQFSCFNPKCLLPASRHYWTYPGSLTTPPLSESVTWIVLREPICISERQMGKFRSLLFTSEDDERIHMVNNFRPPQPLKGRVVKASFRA

For `Cc1cccc(CN2C(=O)CN(c3ccc(S(N)(=O)=O)cc3)C2=O)c1` [8k, 4-(3-(3-Methylbenzyl)-2,4-dioxoimidazolidin-1-yl)benzenesulfonamide], the Ki on hCA I is 1080 nM; at CgNce103, 8.4 nM; on MgCA, more than 100000 nM; on hCA II, 58.3 nM; on hCA VII, 18.8 nM.

As for `NS(=O)(=O)c1ccc(N2CC(=O)N(Cc3ccc(Cl)c(Cl)c3)C2=O)cc1` [8m, 4-(3-(3,4-Dichlorobenzyl)-2,4-dioxoimidazolidin-1-yl)benzenesulfonamide], the Ki at hCA I is 688 nM; on CgNce103, 67.9 nM; on MgCA, more than 100000 nM; at hCA II it was 85.6 nM; at hCA VII, 133 nM.

In the case of `NS(=O)(=O)c1ccc(N2CC(=O)N(Cc3ccccc3F)C2=O)cc1` [8l, 4-(3-(2-Fluorobenzyl)-2,4-dioxoimidazolidin-1-yl)benzenesulfonamide], the Ki came to 447 nM on hCA I; 48.8 nM on CgNce103; 81100 nM at MgCA; 1.2 nM at hCA II; 12.7 nM on hCA VII.

In the case of `CCCCCCCN1C(=O)CN(c2ccc(S(N)(=O)=O)cc2)C1=O` [8b, 4-(3-Heptyl-2,4-dioxoimidazolidin-1-yl)benzenesulfonamide], the Ki at hCA I was 747 nM; at CgNce103 it was 83.7 nM; on MgCA it was 95700 nM; at hCA II it was 56.4 nM; on hCA VII, 187 nM.

On to `CCN1C(=O)CN(c2ccc(S(N)(=O)=O)cc2)C1=O` [8a, 4-(3-Ethyl-2,4-dioxoimidazolidin-1-yl)benzenesulfonamide], for which the Ki at hCA I was determined as 262 nM; at CgNce103, 46 nM; at MgCA it was 68100 nM; at hCA II, 25.8 nM; on hCA VII, 30.8 nM.

In the case of `NS(=O)(=O)c1ccc(N2CC(=O)N(Cc3c(F)c(F)c(F)c(F)c3F)C2=O)cc1` [8n, 4-(2,4-Dioxo-3-((perfluorophenyl)methyl)imidazolidin-1-yl)benzenesulfonamide], the Ki on hCA I came out at 415 nM; at CgNce103, 35.7 nM; on MgCA, 34900 nM; at hCA II it was 91.2 nM; on hCA VII it was 16.9 nM.

For the molecule `NS(=O)(=O)c1ccc(N2CC(=O)N(Cc3ccc(OC(F)(F)F)cc3)C2=O)cc1` [8j, 4-(2,4-Dioxo-3-(4-(trifluoromethoxy)benzyl)imidazolidin-1-yl)benzenesulfonamide], the Ki at hCA I was 425 nM; at CgNce103, 5.9 nM; on MgCA it was more than 100000 nM; on hCA II it was 16.4 nM; on hCA VII, 22.4 nM.

`NS(=O)(=O)c1ccc(N2CC(=O)N(Cc3ccc([N+](=O)[O-])cc3)C2=O)cc1` [8h, 4-(3-(4-Nitrobenzyl)-2,4-dioxoimidazolidin-1-yl)benzenesulfonamide]: the Ki on hCA I is 657 nM; on CgNce103, 6.6 nM; at MgCA, more than 100000 nM; on hCA II, 6.1 nM; on hCA VII, 30.3 nM.

As for `NS(=O)(=O)c1ccc(N2CC(=O)N(Cc3ccccc3)C2=O)cc1` [8d, 4-(3-Benzyl-2,4-dioxoimidazolidin-1-yl)benzenesulfonamide], the Ki at hCA I is 837 nM; on CgNce103 it was 20.9 nM; on MgCA, 64600 nM; on hCA II, 8.7 nM; at hCA VII, 5.3 nM.

As for `C=CCN1C(=O)CN(c2ccc(S(N)(=O)=O)cc2)C1=O` [8c, 4-(3-Allyl-2,4-dioxoimidazolidin-1-yl)benzenesulfonamide], the Ki at hCA I was found to be 234 nM; on CgNce103 it was 54.2 nM; on MgCA, 66600 nM; at hCA II, 32.6 nM; at hCA VII, 19.5 nM.

For the molecule `NS(=O)(=O)c1ccc(N2CC(=O)N(Cc3ccc(C(F)(F)F)cc3)C2=O)cc1` [8i, 4-(2,4-Dioxo-3-(4-(trifluoromethyl)benzyl)imidazolidin-1-yl)benzenesulfonamide], the Ki at hCA I was 601 nM; on CgNce103 it was 13.1 nM; at MgCA it was 59600 nM; at hCA II, 43.3 nM; on hCA VII, 14.3 nM.

Take `NS(=O)(=O)c1ccc(N2CC(=O)NC2=O)cc1` [compound 6, 4-(2,4-Dioxoimidazolidin-1-yl)benzenesulfonamide]: the Ki on hCA I came to 504 nM; at CgNce103, 29.5 nM; at MgCA it was 37200 nM; on hCA II, 18.1 nM; at hCA VII, 61.4 nM.

With `Cc1ccc(CN2C(=O)CN(c3ccc(S(N)(=O)=O)cc3)C2=O)cc1` [8e, 4-(3-(4-Methylbenzyl)-2,4-dioxoimidazolidin-1-yl)benzenesulfonamide], the Ki stood at 2930 nM on hCA I; 18.3 nM at CgNce103; 38900 nM at MgCA; 32.7 nM on hCA II; 3 nM on hCA VII.

For the molecule `NS(=O)(=O)c1ccc(N2CC(=O)N(Cc3ccc(Cl)cc3)C2=O)cc1` [8f, 4-(3-(4-Chlorobenzyl)-2,4-dioxoimidazolidin-1-yl)benzenesulfonamide], the Ki was found to be 8790 nM at hCA I; 44.9 nM on CgNce103; 41500 nM at MgCA; 62.2 nM on hCA II; 15.3 nM on hCA VII.

For `N#Cc1ccc(CN2C(=O)CN(c3ccc(S(N)(=O)=O)cc3)C2=O)cc1` [8g, 4-(3-(4-Cyanobenzyl)-2,4-dioxoimidazolidin-1-yl)benzenesulfonamide], the Ki is 570 nM on hCA I; 38.4 nM on CgNce103; more than 100000 nM on MgCA; 7.2 nM at hCA II; 12 nM on hCA VII.
